Reference: patent US8853234B2, “Quinolone analogs and methods related thereto” (Senhwa Biosciences, Inc., priority 2007, dated 2014)
Where two headings read alike, the source gives them in different places.

System: a variety of cell types that are representative of different cancers
Assay: Alamar Blue cell viability assay, variety of cell types representative of different cancers (Tables 12-14)
Assay type: cell-based
Details: Homo sapiens
Experimental: A representative cell-proliferation assay protocol using Alamar Blue dye (stored at 4° C., use 20 ul per well) is described hereafter.
96-Well Plate Setup and Compound Treatment
a. Split and trypsinize cells.
b. Count cells using hemocytometer.
c. Plate 4,000-5,000 cells per well in 100 μl of medium and seed into a 96-well plate according to the following plate layout. Add cell culture medium only to wells B10 to B12. Wells B1 to B9 have cells but no compound added.
d. Add 100 μl of 2× drug dilution to each well in a concentration shown in the plate layout above. At the same time, add 100 μl of media into the control wells (wells B10 to B12). Total volume is 200 μl/well.
e. Incubate four (4) days at 37° C., 5% CO2 in a humidified incubator.
f. Add 20 μl Alamar Blue reagent to each well.
g. Incubate for four (4) hours at 37° C., 5% CO2 in a humidified incubator.
h. Record fluorescence at an excitation wavelength of 544 nm and emission wavelength of 590 nm using a microplate reader.
In the assays, cells are cultured with a test compound for approximately four days, the dye then is added to the cells and fluorescence of […] dye is detected after approximately four hours. Different types of cells can be utilized in the assays (e.g., HCT-116 human colorectal carcinoma cells, PC-3 human prostatic cancer cells and MiaPaca human pancreatic carcinoma cells). Anti-proliferative effects of representative compounds are provided hereafter.
(§1) Inhibitory activity on cell proliferation of Compounds A1, A2 and A3 was determined using an Alamar Blue cell viability assay (e.g., Example 39 herein) using a variety of cell types that are representative of different cancers Inhibition values (IC50) are presented in micromolar concentrations in the following table (Table 12).
as §1, with “representative compounds of the invention” for “Compounds A1, A2 and A3”, “Table 13 and Table 14.” for “the following table (Table 12).”

[1] = HCT-116, HCT-116 cells, Table 13, read-out: AB: HCT-116 (IC50)
[2] = K562, K-562 cells, Table 13, read-out: AB: K-562 (IC50)
[3] = MV4-11, MV-4-11 cells, Table 13, read-out: AB: MV-4-11 (IC50)
[4] = PC-3, PC3 cells, Table 13, read-out: AB: PC3 (IC50)
[5] = K562, K-562 cells, Table 14, read-out: AB: K-562 (IC50)
[6] = MIA PaCa-2, MiaPaCa cells, Table 14, read-out: AB: MiaPaCa (IC50)
[7] = MV4-11, MV-4-11 cells, Table 14, read-out: AB: MV-4-11 (IC50)
[8] = PC-3, PC3 cells, Table 14, read-out: AB: PC3 (IC50)
[9] = THP-1, THP-1 cells, Table 14, read-out: AB: THP-1 (IC50)

Row | IC50 [1] | IC50 [2] | IC50 [3] | IC50 [4] | IC50 [5] | IC50 [6] | IC50 [7] | IC50 [8] | IC50 [9] | Structure (SMILES)
1 | > 10 µM | > 10 µM | > 10 µM | > 10 µM |  |  |  |  |  | O=C(NC1CC1)c1c(=O)c2ccc(NCC(O)c3ccccc3)nc2n2c1sc1ccccc12 (stereo not shown)
2 | 0.133 µM |  |  | 3.74 µM |  |  |  |  |  | COCCNC(=O)c1c(=O)c2ccc(NCC(O)c3ccccc3)nc2n2c1sc1ccccc12 (stereo not shown)
3 | 2.51 µM | 3.13 µM | 0.543 µM | 6.67 µM |  |  |  |  |  | CN1CCN(C(=O)c2c(=O)c3ccc(NCC(O)c4ccccc4)nc3n3c2sc2ccccc23)CC1 (stereo not shown)
4 | 0.267 µM |  |  | 0.633 µM |  |  |  |  |  | CN1CCCCC1CNC(=O)c1c(=O)c2ccc(NCC(O)c3ccccc3)nc2n2c1sc1ccccc12 (stereo not shown)
5 | > 10 µM | > 10 µM | 5.03 µM | 6.08 µM |  |  |  |  |  | O=C(NCC1CC1)c1c(=O)c2ccc(NCC(O)c3ccccc3)nc2n2c1sc1ccccc12 (stereo not shown)
6 |  |  |  |  | 0.118 µM | 0.941 µM | 0.043 µM | 7.77 µM | 1.33 µM | CN1CCCN(c2nc3c(cc2F)c(=O)c(C(=O)NCc2ccccn2)c2sc4ccccc4n23)CC1
7 |  |  |  |  | 0.032 µM | 0.133 µM | < 0.03 µM | 2.48 µM | 0.356 µM | CN1CCCN(c2nc3c(cc2F)c(=O)c(C(=O)NCc2cccnc2)c2sc4ccccc4n23)CC1
8 |  |  |  |  | 0.095 µM | 0.131 µM | < 0.03 µM | 6.59 µM | 1.06 µM | CN1CCCN(c2nc3c(cc2F)c(=O)c(C(=O)NCc2ccncc2)c2sc4ccccc4n23)CC1
9 |  |  |  |  | 0.11 µM | 0.352 µM | < 0.03 µM | 1.21 µM | 0.59 µM | CN1CCCN(c2nc3c(cc2F)c(=O)c(C(=O)N2CCOCC2)c2sc4ccccc4n23)CC1
10 |  |  |  |  | 0.267 µM | 0.359 µM | 0.124 µM | 1.8 µM | 1.32 µM | CN1CCCN(c2nc3c(cc2F)c(=O)c(C(=O)NN2CCOCC2)c2sc4ccccc4n23)CC1
11 |  |  |  |  | 0.051 µM | < 0.12 µM | 0.032 µM | 2.65 µM | 0.571 µM | CN1CCCN(c2nc3c(cc2F)c(=O)c(C(=O)NCCCO)c2sc4ccccc4n23)CC1
12 |  |  |  |  | 0.101 µM | 0.637 µM | 0.084 µM |  |  | Cc1cnc(CNC(=O)c2c(=O)c3ccc(N4CCCNCC4)nc3n3c2sc2ccccc23)cn1
